{"source": "ChEMBL document CHEMBL2073972", "about": "“Contribution of OATP2 (OATP1B1) and OATP8 (OATP1B3) to the hepatic uptake of pitavastatin in humans” (J Pharmacol Exp Ther, 2004)", "key": {"[1]": {"target": "T1, Solute carrier organic anion transporter family member 1B1 (Homo sapiens, UniProt Q9Y6L6)", "T1 sequence (Q9Y6L6 whole entry)": "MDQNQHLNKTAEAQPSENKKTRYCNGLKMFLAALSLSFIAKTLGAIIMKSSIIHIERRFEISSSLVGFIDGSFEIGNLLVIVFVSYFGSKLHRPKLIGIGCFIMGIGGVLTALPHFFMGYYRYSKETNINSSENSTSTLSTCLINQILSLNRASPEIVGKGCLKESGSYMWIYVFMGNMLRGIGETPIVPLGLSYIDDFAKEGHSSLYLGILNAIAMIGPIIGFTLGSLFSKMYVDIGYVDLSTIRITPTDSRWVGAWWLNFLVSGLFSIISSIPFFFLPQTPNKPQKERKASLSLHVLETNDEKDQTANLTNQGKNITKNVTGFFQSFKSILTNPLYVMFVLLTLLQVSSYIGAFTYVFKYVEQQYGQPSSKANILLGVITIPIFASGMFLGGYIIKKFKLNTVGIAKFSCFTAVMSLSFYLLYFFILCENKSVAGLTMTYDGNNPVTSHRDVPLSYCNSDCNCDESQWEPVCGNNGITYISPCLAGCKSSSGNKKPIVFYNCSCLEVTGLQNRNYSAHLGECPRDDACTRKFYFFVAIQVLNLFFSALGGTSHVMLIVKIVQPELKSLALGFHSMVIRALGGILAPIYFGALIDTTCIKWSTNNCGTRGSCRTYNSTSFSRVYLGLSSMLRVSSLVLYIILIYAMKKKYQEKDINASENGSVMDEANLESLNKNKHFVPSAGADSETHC", "test": "TP_TRANSPORTER: cell accumulation in OATP2-expressing HEK293 cells", "format": "functional, cell-based"}, "[2]": {"target": "T2, Solute carrier organic anion transporter family member 1B3 (Homo sapiens, UniProt Q9NPD5)", "T2 sequence (Q9NPD5 whole entry)": "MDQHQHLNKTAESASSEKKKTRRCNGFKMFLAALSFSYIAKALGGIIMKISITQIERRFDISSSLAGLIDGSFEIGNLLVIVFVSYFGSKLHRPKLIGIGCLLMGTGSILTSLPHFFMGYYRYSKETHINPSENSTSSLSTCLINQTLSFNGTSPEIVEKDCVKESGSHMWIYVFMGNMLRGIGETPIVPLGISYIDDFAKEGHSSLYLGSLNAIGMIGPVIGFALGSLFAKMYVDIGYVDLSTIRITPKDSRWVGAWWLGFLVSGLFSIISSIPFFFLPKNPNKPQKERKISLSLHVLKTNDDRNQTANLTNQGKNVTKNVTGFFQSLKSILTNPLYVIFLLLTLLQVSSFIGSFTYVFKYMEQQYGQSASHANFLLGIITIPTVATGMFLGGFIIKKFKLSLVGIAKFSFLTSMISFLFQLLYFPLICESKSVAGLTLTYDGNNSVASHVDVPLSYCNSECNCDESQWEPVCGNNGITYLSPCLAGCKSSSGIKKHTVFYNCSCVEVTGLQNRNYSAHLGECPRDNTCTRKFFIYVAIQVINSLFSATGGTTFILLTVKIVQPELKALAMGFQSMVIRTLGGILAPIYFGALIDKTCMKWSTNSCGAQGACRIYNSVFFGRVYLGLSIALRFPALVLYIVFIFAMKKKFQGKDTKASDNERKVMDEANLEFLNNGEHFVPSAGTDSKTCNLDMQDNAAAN", "test": "TP_TRANSPORTER: cell accumulation in OATP8-expressing HEK293 cells", "format": "functional, cell-based"}}}
{"smiles": "C[C@]12CC[C@@H]3c4ccc(OS(=O)(=O)O)cc4CC[C@H]3[C@@H]1CCC2=O", "note": "[ESTRONE SULFURIC ACID]", "values": [{"measurement": "Activity", "setting": "[1]", "value": "substrate []"}, {"measurement": "Activity", "setting": "[2]", "value": "substrate []"}]}
{"smiles": "C[C@]12CC[C@@H]3c4ccc(O)cc4CC[C@H]3[C@@H]1CC[C@@H]2O[C@@H]1O[C@H](C(=O)O)[C@@H](O)[C@H](O)[C@H]1O", "note": "[ESTRADIOL 17B GLUCURONIDE]", "values": [{"measurement": "Activity", "setting": "[1]", "value": "substrate []"}, {"measurement": "Activity", "setting": "[2]", "value": "substrate []"}]}
{"smiles": "O=C(O)C[C@H](O)C[C@H](O)/C=C/c1c(C2CC2)nc2ccccc2c1-c1ccc(F)cc1", "note": "[PITAVASTATIN]", "values": [{"measurement": "Activity", "setting": "[1]", "value": "substrate []"}, {"measurement": "Activity", "setting": "[2]", "value": "substrate []"}]}
{"smiles": "CSCC[C@H](NC(=O)[C@H](Cc1ccc(OS(=O)(=O)O)cc1)NC(=O)[C@@H](N)CC(=O)O)C(=O)NCC(=O)N[C@@H](Cc1c[nH]c2ccccc12)C(=O)N[C@@H](CCSC)C(=O)N[C@@H](CC(=O)O)C(=O)N[C@@H](Cc1ccccc1)C(N)=O", "note": "[SINCALIDE]", "values": [{"measurement": "Activity", "setting": "[1]", "value": "substrate []"}, {"measurement": "Activity", "setting": "[2]", "value": "substrate []"}]}
